# Read-outs that look alike come from different tables or passages of the source. Marks after values point to notes of the source that are not given here.
# Assays:
# [1] = tested on: subcutaneous CT26 tumors; settings: for Delay of tumor growth compared with vehicle / Delayed Response (TV > 10 and <2000 mm^3) / Treatment Failure (TV > 2000 mm^3) / Complete Response (TV < 10 mm^3) / Median Time to Endpoint: 3 × q3d; for Median Time to Endpoint: vehicle 17.0
# Experimental: Each mouse was inoculated subcutaneously in the right flank with 3 × 10^5 CT26 cells (in 0.1 mL PBS) for tumor development.
# PBS was used as the vehicle control. […] Vehicles and test compounds were administered IT q3d × 3 in a volume of 0.05 mL. SC administration was performed between the shoulder blades at a dosing volume of 10 mL/kg. Tumors were measured twice a week in two dimensions using calipers, and volume was calculated using Formula (1):Tumor Volume (mm^3) = 0.5 (w^2 × l)(1)
# Here, w = width and l = length, in mm, of a tumor.
# Tumor weight was estimated with the assumption that 1 mg is equivalent to 1 mm^3 of tumor volume.
# Animals were euthanized when (1) their tumor reached the endpoint volume of 2000 mm^3, (2) their body weight loss exceeded 30%, or (3) on the last day of the study, whichever came first. The TTE for analysis was calculated for each mouse by the following Equation (2):TTE = (log10 (endpoint volume) − b)/m(2)
# TTE is expressed in days, endpoint volume is expressed in mm^3, b is the intercept, and m is the slope of the line obtained via linear regression of a log-transformed tumor growth data set. […] Animals were weighed on Days 1–5, then twice weekly for the duration of the study.
# [2] = tested on: HEK 293 reporter cells; test: Cell viability of HEK 293 reporter cells (CellTiter-Glo); settings: concentrations up to 1000 nM
# Experimental: (§1) Assays were set up after allowing cells to adhere for 48 h. Compounds dissolved in water were serially diluted in dosing buffer containing 10 µg/mL of digitonin (MP Biomedicals, Solon, OH, USA). Media were aspirated from the cells, and 50 µL of buffer with compound was added in triplicate. […] The next day, 20 µL of media was transferred to two new plates, and either 50 µL of QuantiLuc™ (Invivogen) to measure IFN-β expression or 80 µL of QuantiBlue™ (Invivogen) to measure IRF activity were added. […] An aliquot of 100 µL of CellTiter-Glo® (Promega, Madison, WI, USA) was added to the original plate still containing the cells, and luminescence was determined to measure viability. All readouts were measured on an Envision plate reader from Perkin Elmer. Data were analyzed using GraphPad™ Prism’s version 8.0 [Agonist] vs. response—variable slope (four parameters) model.
# (§2) with increasing concentrations of the STING agonists or IFN‐β. After 24 hours, IRF reporter activity
# [3] = tested on: plasma cytokines; test: Plasma cytokine analysis in CT26-tumor-bearing mice; format: in vivo, mouse; settings: CT26-bearing BALB/c, one IT dose of 100 μg, 4 h after dosing
# Experimental: Plasma levels of IFN-α, IFN-β, IL-2, TNF-α, IL-6, IL-12, IP-10, IFN-γ, and MCP-1 (in pg/mL) were measured using the ProcartaPlex 9-Plex (ThermoFisher Scientific) according to the manufacturer’s instructions. Data were processed using Milliplex Analyst software version 5.1 on a MAGPIX instrument (Luminex Corp., Austin, TX, USA).
# Figure S5. Plasma cytokine levels in female BALB/c mice bearing SC CT26 tumors receiving one IT dose of 100 μg ADU‐S100 or ALG‐031048, at a mean TV of 116 mm3. Cytokine concentrations were analyzed 4 hours after dos ing. Only statistically significant differences (unpaired, parametric t test) are indicated by brackets.
# (also on this page, place not known: pg/ml pg/ml pg/ml pg/ml pg/ml pg/ml pg/ml pg/ml pg/ml dosing.) […]
# 1 mg 4 mg Saline 25 g/kg S /kg SC
# Figure S8. Cytokine induction in CT26 tumor‐bearing mice upon SC administration of ALG‐031048.
# 10 mice per group were treated with 3 doses 3 days apart. Plasma samples were collected 6 hours […]
# [4] = target: T1, ENPP1 (Homo sapiens, UniProt P22413); test: ENPP1 stability assay; format: in vitro ADME; settings: pH 9.5; 100 μM STING agonist, 26.5 nM recombinant human ENPP1, 37 °C, up to 2 h; read-out: ENPP1 t½
# T1 construct: purchased R&D Systems
# T1 sequence (P22413 1-925): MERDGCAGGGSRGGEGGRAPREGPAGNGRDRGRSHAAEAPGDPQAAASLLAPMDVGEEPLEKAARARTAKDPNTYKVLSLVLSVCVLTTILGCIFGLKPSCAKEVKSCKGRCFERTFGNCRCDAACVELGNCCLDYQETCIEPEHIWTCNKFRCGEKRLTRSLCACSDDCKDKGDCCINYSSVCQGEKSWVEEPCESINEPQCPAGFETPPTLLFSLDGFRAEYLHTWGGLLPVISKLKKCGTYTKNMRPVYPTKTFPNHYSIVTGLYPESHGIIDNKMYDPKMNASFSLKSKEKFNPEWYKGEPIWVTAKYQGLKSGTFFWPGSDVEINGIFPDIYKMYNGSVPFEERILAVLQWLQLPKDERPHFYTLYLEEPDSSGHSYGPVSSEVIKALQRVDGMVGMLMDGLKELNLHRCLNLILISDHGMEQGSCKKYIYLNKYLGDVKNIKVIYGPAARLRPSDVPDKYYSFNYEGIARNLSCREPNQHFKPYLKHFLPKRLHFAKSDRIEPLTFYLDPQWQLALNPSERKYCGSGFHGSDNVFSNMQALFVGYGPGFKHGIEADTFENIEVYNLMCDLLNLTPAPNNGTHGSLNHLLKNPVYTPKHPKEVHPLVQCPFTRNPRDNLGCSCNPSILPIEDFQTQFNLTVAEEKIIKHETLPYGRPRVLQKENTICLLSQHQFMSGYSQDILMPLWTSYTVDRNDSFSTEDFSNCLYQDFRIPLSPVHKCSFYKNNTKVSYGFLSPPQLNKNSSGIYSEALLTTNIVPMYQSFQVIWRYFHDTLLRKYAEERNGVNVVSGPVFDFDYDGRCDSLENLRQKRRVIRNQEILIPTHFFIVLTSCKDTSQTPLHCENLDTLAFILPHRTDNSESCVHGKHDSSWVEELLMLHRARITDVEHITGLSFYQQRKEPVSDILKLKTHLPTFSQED
# [5] = tested on: HEK 293 cells lacking functional STING; test: HEK 293 STING Dual Null IRF reporter assay
# Experimental: as §1, §2
# [6] = tested on: primary human monocytes; test: Activation of primary human monocytes (CD83/CD86 flow cytometry); format: cell-based; settings: Monocyte, 24 h after stimulation
# From the text: Frozen human PBMCs (100 × 10^6 cells) were obtained from Stem Cell Technologies (Kent, WA, USA). Monocytes were purified from PBMCs using a CD14^+ pan-monocyte-negative isolation kit and an LS column (Miltenyi Biotec, Bergisch Gladbach, Germany). Magnetically labeled non-target cells were depleted by retaining them within a MACS column in the magnetic field of a MACS Separator, while highly purified unlabeled CD1 D16^− cells were collected and used to generate dendritic cells.
# The cell suspension was then incubated with a predetermined optimal concentration of the appropriate fluorescent dye-labeled monoclonal antibodies (mAbs) against human cell surface markers on ice for 30 min. The fluorescent dye-labeled mAbs against human cell surface molecules included anti-CD209, anti-CD14, anti-CD11c, anti-CD40, anti-HLA-DR, anti-CD86, and anti-CD83 (BD Biosciences, Franklin Lakes, NJ, USA or BioLegend, San Diego, CA, USA). In addition, a fixable live/dead stain (Thermo Fisher Scientific) at a dilution of 1:1000 was added to exclude dead cells. After several washes with FACS buffer, cells were resuspended in FACS buffer and analyzed on an Attune Nxt flow cytometer (Thermo Fisher Scientific) with FlowJo v10 software (BD Biosciences). An aliquot of the cells to be analyzed served as controls by using “fluorescent minus-one” to establish gates and determine the frequency of positively stained cells. Ultra-comp beads (Thermo Fisher Scientific) were used as single-stained controls to set up compensation on the flow cytometer.
# [7] = Table 2 study, 25 μg IT, n = 10
# [8] = Table 2 study, 100 μg IT, n = 10
# [9] = Table 3/4 study, 25 μg IT, n = 10
smiles,measurement,setting,value
CO[C@H]1[C@H]2OP(=O)(O)OC[C@@]34C[C@@H]3[C@@H](n3cnc5c(N)ncnc53)[C@H](O)[C@@H]4O[P@](=O)(S)OC[C@H]1O[C@H]2n1cnc2c(=O)[nH]c(N)nc21 [ALG-031048],Delay of tumor growth compared with vehicle,"[1]; CT26, 1 mg/kg SC",4.0 days
same,Delay of tumor growth compared with vehicle,"[1]; CT26, 4 mg/kg SC",21.0 days
same,Time mice remained tumor-free after the last dose,"[1]; CT26, longest observation in any study",approximately 2.5 months
same,"Complete tumor suppression, initial CT26 tumor","[1]; Figure 5B study, three IT doses of 100 μg",100%
same,Delayed Response (TV > 10 and <2000 mm^3),[1]; [7],10% ^c
same,Treatment Failure (TV > 2000 mm^3),[1]; [7],44% ^c
same,Delayed Response (TV > 10 and <2000 mm^3),[1]; [8],0%
same,Treatment Failure (TV > 2000 mm^3),[1]; [8],10%
same,Complete Response (TV < 10 mm^3),[1]; [9],0%
same,Delayed Response (TV > 10 and <2000 mm^3),[1]; [9],0%
same,Treatment Failure (TV > 2000 mm^3),[1]; [9],100%
same,TV at end of study of animal with delayed response,"[1]; Table 4 study, 100 μg IT",18 mm^3
same,Delayed Response (TV > 10 and <2000 mm^3),"[1]; Table 4 study, 100 μg IT",10% ^b
same,Treatment Failure (TV > 2000 mm^3),"[1]; Table 4 study, 100 μg IT",50%
same,Complete Response (TV < 10 mm^3),"[1]; Table 4 study, 100 μg IT, n = 10",40%
same,Median Time to Endpoint,"[1]; Table 4 study, 100 μg IT",38.0 days
same,Delayed Response (TV > 10 and <2000 mm^3),"[1]; Table 4 study, 1 mg/kg SC",0%
same,Treatment Failure (TV > 2000 mm^3),"[1]; Table 4 study, 1 mg/kg SC",100%
same,Complete Response (TV < 10 mm^3),"[1]; Table 4 study, 1 mg/kg SC, n = 10",0%
same,Median Time to Endpoint,"[1]; Table 4 study, 1 mg/kg SC",21.0 days
same,TV at end of study of animal with delayed response,"[1]; Table 4 study, 4 mg/kg SC",1568 mm^3
same,Delayed Response (TV > 10 and <2000 mm^3),"[1]; Table 4 study, 4 mg/kg SC",10% ^a
same,Treatment Failure (TV > 2000 mm^3),"[1]; Table 4 study, 4 mg/kg SC",80%
same,Complete Response (TV < 10 mm^3),"[1]; Table 4 study, 4 mg/kg SC, n = 10",10%
same,Median Time to Endpoint,"[1]; Table 4 study, 4 mg/kg SC",35.0 days
same,Cell viability of HEK 293 reporter cells,[2],did not cause any loss of cell viability
same,Plasma cytokines after IT dosing,[3],"increased cytokines such as IFN-α and -β, TNF-α, interleukin 6 (IL-6), MCP-1, and IP-10"
same,half-life at 100 μM,[4],> 2 h
same,STING dependence of cellular activation (IRF reporter),"[5]; HEK 293 R232 cells vs control cells lacking STING expression, 24 hours",dependent on the expression of STING
same,EC50,"[5]; Homo sapiens, HEK293, read-out: Reporter Cell Assay EC50, STING Dual Null IRF",> 100 µM
same,EC50,"[6]; read-out: EC50 CD83, Monocytes",8.1 µM
same,EC50,"[6]; read-out: EC50 CD86, Monocytes",1.12 µM
